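Exposure lasted 48 hours, with cells grown in 96-well plates and compounds tested at five concentrations. GI50 is the concentration that inhibits growth by half. TGI denotes the concentration required for complete inhibition of growth.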
Columns and labels:
Test in all cases: DTP human tumour cell line panel, 48 h
[1] = test system: HCC-2998 colon
[2] = test system: NCI/ADR-RES ovarian
[3] = test system: NCI-H226 lung
[4] = test system: MOLT-4 leukemia
[5] = test system: 786-0 renal
[6] = test system: NCI-H23 lung
[7] = test system: RXF 393 renal
[8] = test system: IGROV1 ovarian
[9] = test system: OVCAR-3 ovarian
[10] = test system: U251 CNS

| Structure (SMILES) | TGI [1] [µM] | TGI [2] [µM] | TGI [3] [µM] | TGI [4] [µM] | TGI [5] [µM] | TGI [6] [µM] | TGI [7] [µM] | TGI [8] [µM] | TGI [9] [µM] | TGI [10] [µM] | GI50 [1] [µM] | GI50 [3] [µM] | GI50 [8] [µM] |
| --- | --- | --- | --- | --- | --- | --- | --- | --- | --- | --- | --- | --- | --- |
| Cc1cc(-c2nc3ccccc3s2)ccc1NC(=O)[C@@H](N)CCCCN | 24.5 | 36.5 | 17.8 | 17.1 | 13.2 | 17.5 | 16.5 | 17.2 | 26.3 | 9.88 |  |  |  |
| Nc1ccc(-c2nc3ccccc3s2)cc1C(F)(F)F | 22.4 | 35.2 | 34.4 | 52.4 | 26.6 | 28 | 21.9 | 21.1 | 30.2 | 28.7 | 10.6 | 15.3 | 2.6 |
| O=C(O)c1cc(-c2ccc3c(O)c(O)ccc3c2)ccc1O | > 75 | > 75 | > 75 | 33.2 | > 75 | > 75 | 47.8 | > 75 | > 75 | 26.1 |  |  |  |
| c1csc(-c2ccc(-c3cccs3)c3nsnc23)c1 | > 100 | > 83.7 | > 50.2 | 30.3 | > 54 | > 68.4 | > 64.7 | > 88.4 | > 57.4 | > 87.5 |  |  |  |
| CC1=C2C(=C[C@H]3[C@]4(C)CCCC(C)(C)[C@H]4CC[C@]34O[C@H]24)OC1=O | > 100 | > 100 | > 100 | > 100 | > 100 | > 100 | > 100 | > 100 |  | > 100 |  |  |  |
| N#CC(N=Nc1ccc(Cl)cc1)c1nc2ccccc2o1 (stereo unspecified) | > 100 | > 100 | > 100 | > 100 | > 100 | 98.2 | > 100 |  | > 100 | > 100 |  |  |  |
| COC(=O)CN1c2nc(C#N)c(C#N)nc2N(CC(=O)OC)c2nc(C#N)c(C#N)nc21 | > 49.7 | > 100 | > 100 | > 22 | 5.21 | > 29.8 | 7.09 | 23.4 | 18.8 | > 57.1 |  |  |  |
| CC(O)CCCOC(c1ccccc1)(c1ccccc1)c1ccccc1 (stereo unspecified) | 29.1 | 24 | 30.2 | > 50.9 | 30.3 | 27.6 | 29.2 | 29.9 | 27.3 | 30.3 |  |  |  |
| COC(C)(C)[C@@H](O)[C@H]1C[C@H](C)[C@@]2(CC[C@]3(C)[C@@H]2CC[C@@H]2[C@@]4(C)CC[C@@H](OC(C)=O)C(C)(C)[C@@H]4C[C@@H](OC4OC(COC(C)=O)C(O)C(O)C4O)[C@]23C)O1 (stereo partly specified) | 2.92 | 22.5 | 17.5 | 10.7 | 18.7 | 25.8 | 11.8 | 16.6 | 15.3 | 18.5 |  |  |  |
| CCOC(CNCCC(=O)OC)OCC | > 10 | > 10 | > 10 | > 10 | > 10 | > 10 | > 10 | > 10 | > 10 | > 10 |  |  |  |
| O=C1CC(C(O)(C(F)(F)F)C(F)(F)Cl)CCC1C(O)(C(F)(F)F)C(F)(F)Cl (stereo unspecified) | > 10 | > 10 | > 10 | > 10 | > 10 | > 10 | > 10 | > 10 | > 10 | > 10 |  |  |  |
| O=[N+]([O-])c1ccc(/C=C/c2cc(-c3ccccc3)nc3ccc4ccccc4c23)cc1 | > 100 | > 100 | > 100 | > 100 | > 100 | > 100 | > 100 | > 100 | > 100 | > 100 |  |  |  |
| CCOC(=O)c1c(-c2ccccc2)c(-c2ccccc2)cn1C | > 10 | > 10 | > 10 | > 10 | > 10 | > 10 | > 10 | > 10 | > 10 | > 10 |  |  |  |
| Clc1ccc(CSCCc2ccncc2)cc1Cl | 34.2 | 50.5 | 49.2 | 38.1 | 33.1 | 51.1 | 61.8 | 52.2 | 33.1 | 28.5 |  |  |  |
| NNC1=N/C(=C\c2ccco2)C(Cl)=N1 | > 100 | > 100 | > 100 | 34.9 | > 100 | > 100 | > 100 | > 100 | > 100 | > 100 |  |  |  |
| S=c1[nH]c2ccc(Br)cc2c(=S)s1 | 63.7 | > 100 | > 100 | > 100 | > 100 | 82.6 | > 100 | > 100 | > 100 | 54.8 |  |  |  |
| CC(=O)Oc1cc(C(F)(F)F)ccc1C(=O)OC1(C)OC(=O)c2ccc(C(F)(F)F)cc2O1 (stereo unspecified) | > 100 | > 100 | > 100 | > 100 | > 100 | > 100 | > 100 | > 100 | > 100 | > 100 |  |  |  |

Source: PubChem BioAssay (NCI)
